In US9556217B2, “Amphiphilic compounds” (WISCONSIN ALUMNI RESEARCH FOUNDATION, priority 2012, dated 2017):

Columns and labels:
β2AR-T4L = β2AR-T4L thermostability (Tm, carazolol fluorescence); set-up: species or system human; settings: for β2AR-T4L Tm comparison at higher concentrations: higher concentrations than CMC+0.05 wt %
Experimental: To assess the new amphiphiles with a GPCR, a human 132 adrenergic receptor-T4-lysozyme fusion protein (β2AR-T4L) was used (Rosenbaum et al., Science 2007, 318, 1266-1273). Stability was assessed via […] of β2AR-T4L bound to the inverse agonist carazolol. β2AR-T4L was initially solubilized and purified with DDM, and this detergent was then exchanged for the agent to be evaluated. The fluorescence emission maximum of carazolol occurs at 356 nm in aqueous solution, but emission is shifted to 341 nm in the receptor-bound state. The 341:356 nm peak intensity ratio was used to monitor the relative amounts of intact and denatured β2AR-T4L, with Tm defined as the temperature at which the 341:356 nm peak intensity ratio is half-way between that of fully native receptor and the fully denatured receptor.
Stability of β2AR-T4L was assessed by measuring the melting temperature (Tm) of the receptor according to the procedure reported by Chae and coworkers (Nat. Methods 2010, 7, 1003-1008).
A receptor fusion protein of T4 lysozyme inserted in the 3rd intracellular loop of the β2AR^4 was cloned into BestBac baculovirus (Expression Systems, CA) and expressed in Sf9 insect cell cultures. The receptor was solubilized and purified in DDM as previously described (Kobilka, Anal. Biochem. 1995, 231, 269-271). […]
For stability measurements the carazolol-bound receptor was diluted below the CMC for DDM by adding 3 μL of the concentrated receptor in a quartz cuvette containing 600 μL buffer (100 mM NaCl, 20 mM HEPES, pH 7.5) with amphiphiles at various concentrations above their CMC. […] Fluorescence emission from carazolol was obtained following 5 min incubations from 25 to 85° C. in twelve continuous 5° C. increments. Excitation was set at 325 nm, and emission was measured from 335 to 400 nm with an integration time of 0.3 s nm-1 using a bandpass of 1 nm for both excitation and emission. The 341:356 nm peak ratio was calculated and graphed using Microsoft Excel and GraphPad Prism software.

[1] = Critical micelle concentration (fluorescent dye solubilization); format: physicochemical
Excerpt: The “Critical Micelle Concentration” (CMC) refers to the concentration of a detergent (e.g., an amphiphile as described herein) in an aqueous solution at which the detergent molecules self-assemble into micelles. Below the CMC, detergents are mostly monomeric; above the CMC, micelle concentration increases linearly with detergent concentration. The CMC is dependent upon many factors and is detergent-specific. The CMC of a detergent can be determined experimentally by measuring the solubilization of a water-insoluble dye or fluorophore while varying the concentration of detergent. A CMC may also be determined by measuring the diminution of the surface tension of an aqueous solution as a function of detergent concentration (CMCs determined by either method correlate with each other). The CMC is determined by extrapolating the plot of solubilization vs. concentration (or surface tension vs. concentration) in the two linear regions above and below the CMC. Where the two lines intersect is the CMC. The CMC can also be determined by the method of Nugebauer, J. M. (1990), Methods in Enzymology, 182:239-253.
The four compounds were readily prepared on a multi-gram scale (see Examples 1 and 2 below, and FIGS. 13-15), as is necessary if they are to serve as research tools. All four are highly soluble in aqueous solution (>20 wt %) and have relatively low critical micelle concentrations (CMC; determined by fluorescent dye solubilization).

[2] = Hydrodynamic radius of micelles by dynamic light scattering; format: physicochemical; settings: Mean ± SD, n = 5
Excerpt: These values are somewhat smaller than the CMC of DDM, which indicates a strong tendency of the new agents to self-assemble, and which can be advantageous for IMP handling because detrimental levels of non-micellar amphiphile can be avoided. Table 1 provides the hydrodynamic radius (Rh) of the micelles formed by each amphiphile, as determined by dynamic light scattering (DLS). The micelles formed by GLC amphiphiles are slightly smaller than those formed by DDM, while the micelles formed by GDN are slightly larger.

Compound | β2AR-T4L Tm comparison at relatively low concentrations (β2AR-T4L; <CMC+0.05 wt %) | CMC [1] | CMC (wt %) [1] | Rh (nm), hydrodynamic radius of micelles [2] | β2AR-T4L Tm comparison at higher concentrations (β2AR-T4L)
CCCCCCCCCCCCO[C@@H]1O[C@H](CO)[C@@H](O[C@H]2O[C@H](CO)[C@@H](O)[C@H](O)[C@H]2O)[C@H](O)[C@H]1O [DDM, dodecyl-β-D-maltoside, reference compound] | superior to the new amphiphiles | ~170 µM | ~0.0087 wt % | 3.42 ± 0.03 nm | 
C[C@@H]1CC[C@@]2(OC1)O[C@H]1C[C@H]3[C@@H]4CC=C5C[C@@H](OCCC(CO[C@@H]6OC(CO)[C@@H](O[C@H]7OC(CO)[C@@H](O)C(O)C7O)C(O)C6O)CO[C@@H]6OC(CO)[C@@H](O[C@H]7OC(CO)[C@@H](O)C(O)C7O)C(O)C6O)CC[C@]5(C)[C@H]4CC[C@]3(C)[C@@H]1[C@@H]2C (stereo partly drawn) [GDN, glyco-diosgenin] |  | ~18 µM | ~0.0021 wt % | 3.86 ± 0.05 nm | superior to DDM
CO[C@@H]1CC[C@@]2(C)[C@H](CC[C@@H]3[C@@H]2CC[C@]2(C)[C@@H]([C@H](C)CCCOCC(C)(CO[C@@H]4OC(CO)C(O[C@@H]5OC(CO)[C@@H](O)[C@H](O)C5O)[C@@H](O)C4O)CO[C@@H]4OC(CO)[C@@H](O[C@H]5OC(CO)[C@@H](O)[C@H](O)C5O)[C@H](O)C4O)CC[C@@H]32)C1 (stereo partly drawn) [GLC-2] |  | ~8.0 µM | ~0.0009 wt % | 3.32 ± 0.04 nm | superior to DDM
